According to patent US12193444B2, “Insecticidal composition and use thereof” (ADAMA MAKHTESHIM LTD., priority 2018, dated 2025):
Where a name gives a salt, the structure may show the parent alone.

Tests used:
[1] = Accelerated storage stability: degradation of active ingredients after 14 days at 54° C.; type: physicochemical
Description: In some embodiments, the percentage of degradation is calculated based on the percentage of cartap and/or emamectin by weight based on the total weight of the stable composition before and after storage. […]
In addition, two different levels of water content were measured, content (a) less than 0.2% and b) from more than 0.3% to less than 0.5%.
In example 1, the concentrations of the cartap and emamectin were measured after 14 days storage at 54° C.
For GR composition, it was observed that the failed batches are associated with the bulging of the pouch under accelerated storage. For study of accelerated storage at 54° C. for 14 days, the sample is kept in a sealed tri-laminated aluminum pouch and after storage, the visual observations are done to observe the pouch bulging, if any. Comparative rating was done, where more number of stars denotes more bulging. From table 5, it is clear that, for the storage stability samples of pH 5.1, 4.7, 4.1 and 3.5 (for both the processes) samples with water content of less or equal to 0.2% water content by weight based on the total weight of the stable composition, have not shown any bulging.

[2] = cited from earlier work
[3] = pH (1% Aq.) 3.5, water content <0.2 % w/w
[4] = pH (1% Aq.) 3.5, water content >0.3 to <0.5 % w/w
[5] = pH (1% Aq.) 4.1, water content <0.2 % w/w
[6] = pH (1% Aq.) 4.1, water content >0.3 to <0.5 % w/w
[7] = pH (1% Aq.) 4.7, water content <0.2 % w/w
[8] = pH (1% Aq.) 4.7, water content >0.3 to <0.5 % w/w
[9] = pH (1% Aq.) 5.1, water content <0.2 % w/w
[10] = pH (1% Aq.) 5.1, water content >0.3 to <0.5 % w/w
[11] = pH (1% Aq.) 5.5, water content <0.2 % w/w
[12] = pH (1% Aq.) 5.5, water content >0.3 to <0.5 % w/w
[13] = pH (1% Aq.) 5.8, water content <0.2 % w/w
[14] = pH (1% Aq.) 5.8, water content >0.3 to <0.5 % w/w

## (4″R)-5-O-demethyl-4″-deoxy-4″-(methylamino)avermectin [Emamectin]
[1]; [3]
  % Emamectin degradation (14 Days Storage, 54° C.) Process 1: 1.9%
  % Emamectin degradation (14 Days Storage, 54° C.) Process 2: 4.49%
[1]; [4]
  % Emamectin degradation (14 Days Storage, 54° C.) Process 1: 13%
  % Emamectin degradation (14 Days Storage, 54° C.) Process 2: 13.97%
[1]; [5]
  % Emamectin degradation (14 Days Storage, 54° C.) Process 1: 0.95%
  % Emamectin degradation (14 Days Storage, 54° C.) Process 2: 2.3%
[1]; [6]
  % Emamectin degradation (14 Days Storage, 54° C.) Process 1: 14.45%
  % Emamectin degradation (14 Days Storage, 54° C.) Process 2: 5.02%
[1]; [7]
  % Emamectin degradation (14 Days Storage, 54° C.) Process 1: 6.14%
  % Emamectin degradation (14 Days Storage, 54° C.) Process 2: 2.38%
[1]; [8]
  % Emamectin degradation (14 Days Storage, 54° C.) Process 1: 17.1%
  % Emamectin degradation (14 Days Storage, 54° C.) Process 2: 7.31%
[1]; [9]
  % Emamectin degradation (14 Days Storage, 54° C.) Process 1: 7.98%
  % Emamectin degradation (14 Days Storage, 54° C.) Process 2: 4.49%
[1]; [10]
  % Emamectin degradation (14 Days Storage, 54° C.) Process 1: 12.12%
  % Emamectin degradation (14 Days Storage, 54° C.) Process 2: 27.2%
[1]; [11]
  % Emamectin degradation (14 Days Storage, 54° C.) Process 1: 8.33%
  % Emamectin degradation (14 Days Storage, 54° C.) Process 2: 6.89%
[1]; [12]
  % Emamectin degradation (14 Days Storage, 54° C.) Process 1: 40.96%
  % Emamectin degradation (14 Days Storage, 54° C.) Process 2: 24.63%
[1]; [13]
  % Emamectin degradation (14 Days Storage, 54° C.) Process 1: 16.7%
  % Emamectin degradation (14 Days Storage, 54° C.) Process 2: 20.2%
[1]; [14]
  % Emamectin degradation (14 Days Storage, 54° C.) Process 1: 70.74%
  % Emamectin degradation (14 Days Storage, 54° C.) Process 2: 26.59%
[2]; highly unstable, decomposes rapidly
  decomposition of emamectin: about 25%
[2]; pH 5, 6, 7 and 8 (25° C.)
  stability to hydrolysis: stable to hydrolysis

## CN(C)C(CSC(N)=O)CSC(N)=O [Cartap Hydrochloride, S,S′-(2-dimethylaminotrimethylene) bis(thiocarbamate)]
[1]; [3]
  % Cartap Hydrochloride degradation (14 days storage, 54° C.) Process 1: 0%
  % Cartap Hydrochloride degradation (14 days storage, 54° C.) Process 2: 2.27%
[1]; [4]
  % Cartap Hydrochloride degradation (14 days storage, 54° C.) Process 1: 0%
  % Cartap Hydrochloride degradation (14 days storage, 54° C.) Process 2: 2.80%
[1]; [5]
  % Cartap Hydrochloride degradation (14 days storage, 54° C.) Process 2: 0.23%
[1]; [6]
  % Cartap Hydrochloride degradation (14 days storage, 54° C.) Process 2: 2.80%
[1]; [7]
  % Cartap Hydrochloride degradation (14 days storage, 54° C.) Process 1: 2.46%
[1]; [8]
  % Cartap Hydrochloride degradation (14 days storage, 54° C.) Process 1: 3.63%
[1]; [9]
  % Cartap Hydrochloride degradation (14 days storage, 54° C.) Process 1: 2.40%
  % Cartap Hydrochloride degradation (14 days storage, 54° C.) Process 2: 1.67%
[1]; [10]
  % Cartap Hydrochloride degradation (14 days storage, 54° C.) Process 1: 4.05%
  % Cartap Hydrochloride degradation (14 days storage, 54° C.) Process 2: 1.22%
[1]; [11]
  % Cartap Hydrochloride degradation (14 days storage, 54° C.) Process 1: 0.00%
[1]; [12]
  % Cartap Hydrochloride degradation (14 days storage, 54° C.) Process 1: 3.30%
[1]; [13]
  % Cartap Hydrochloride degradation (14 days storage, 54° C.) Process 1: 3.16%
  % Cartap Hydrochloride degradation (14 days storage, 54° C.) Process 2: 1.09%
[1]; [14]
  % Cartap Hydrochloride degradation (14 days storage, 54° C.) Process 1: 4.94%
  % Cartap Hydrochloride degradation (14 days storage, 54° C.) Process 2: 6.48%
